US20050032688A1, “Use of angiotensin II fragments and analogs thereof in tissue repair” (University of Southern California, priority 1993, published 2005)
“Also recorded” adds a separate entry of the source. Read-outs that look alike come from different tables or passages of the source. Ends that are not written are not given here.

Assays:
[1] = test system: porcine aortic endothelial cells; conditions: cited from earlier work
[2] = test system: motility, stereotypy and learning of conditioned avoidance responses; conditions: injected in the lateral cerebral ventricle, rats; cited from earlier work
[3] = test system: neurons in the paraventricular nucleus; conditions: cited from earlier work
water intake = conditions: injected into the anterior diencephalons in the rat; cited from earlier work
blood pressure [4] = conditions: cited from earlier work
[5] = in contrast to AII; cited from earlier work
blood pressure [6] = conditions: in vivo; cited from earlier work
rat mesangial cells = conditions: through the AT1 receptor; cited from earlier work
[7] = test system: rat glomerulus preparations; conditions: through the AT1 receptor; cited from earlier work
[8] = test system: porcine vascular smooth muscle cells; conditions: cited from earlier work
human astrocytes = conditions: cited from earlier work
[9] = test system: porcine coronary artery rings; conditions: perhaps through nitric oxide; cited from earlier work
[10] = test system: rat isolated nodose ganglion; conditions: cited from earlier work
wound tissue = conditions: application to wound tissue; cited from earlier work
rat adrenal medulla = conditions: cited from earlier work
[11] = test system: baroreceptor-heart-reflex; conditions: in vivo; cited from earlier work
[12] = test system: full thickness dermal wounds; test: Wound closure and granulation tissue in full thickness dermal wounds, carboxymethyl cellulose vehicle (Example 3); format: in vivo, Female Sprague Dawley rats; conditions: tested fragments of AII
Method: Female Sprague Dawley rats, 175-200 g, were obtained from Simonsen Laboratories, Gilroy, Calif. On the day of surgery, the rats received intramuscular ketamine/rompum anesthesia prior to preparation for surgery. The rats were shaved and scrubbed with betadine. Two 1.5×1.5 cm full thickness dermal wounds were created on the dorsal surface of the rat. Following excision of the skin, the size of the wound was outlined on a glass slide and the medicament was administered ini 100 μl 10% low viscosity carboxymethyl cellulose (Sigma). The test materials were administered in a randomized fashion; all materials were tested at 100 μg/wound. Controls were treated with vehicle only. After administration of the materials, the rats were bandaged and allowed to recover from anesthesia. On days 1-4 after surgery, the rats were treated with an additional 100 μg of peptide formulation. At days 2, 4, 7 and 9, the area of the skin wounds were measured under methoxyflurane anesthesia (commercially available as Metofane from Pittman-Moore, Mundelein, Ill.). The area of the wound was determined by: (1) tracing the wound shape onto graph paper (1×1 mm squares); (2) cutting out the shape; (3) weighing the paper and comparing the weight with a 1.5×1.5 cm paper cutout; and (4) counting the number of squares. In addition, on days 2, 4 and 7, the area of granulation tissue was similarly determined.

blood pressure [13] = conditions: intracerebroventricular infusion in the rat; concentrations 1000× higher than that of AII that increased blood pressure; cited from earlier work

For “AI: a decapeptide called angiotensin I which is converted to angiotensin II (DRVYIHPFHL; Angiotensin-1; UniProt P01019 25-34, looked up)”, which “release of prostaglandin E2 and 12” value [1] is on record?
Its value is “stimulated”.

With “Arg-Val-Tyr-Ile-His (RVYIH; printed: Arg-Val-Tyr-Ile-His) [AII(2-6)]” as the substance, how does the “motility, stereotypy and learning of conditioned avoidance responses (psychotropic activities)” value [2] read?
Its value is “not active”.

For “Arg-Val-Tyr-Ile-His-Pro (RVYIHP) [AII(2-7)]”, which excitation of neurons [3] is on record?
Its excitation of neurons is “inactive”.

For Asp-Arg-Val-Tyr (DRVY) [AII(1-4)], which “effect on water intake” value (water intake) is on record?
The value was “only a slight effect”.

What does the source list for “Asp-Arg-Val-Tyr-Ile-His-Pro (DRVYIHP) [AII(1-7)]”?
dose at which pressor effects on blood pressure occur, relative to AII (blood pressure [4]; depending upon the model tested and route of administration): 10000-100000 times the dose of AII; depressor effect on blood pressure (blood pressure [4]; may be mediated through prostanoid synthesis): depressor effect; aldosterone release [5]: does not cause; catecholamine release [5]: does not cause; dipsogenic effect [5]: not dipsogenic; amount required relative to AII to get a comparable pressor response (blood pressure [6]): about 10000 ×; depressor effect (blood pressure [6]): long depressor effect; pressor effect (blood pressure [6]): weak pressor; choline production (rat mesangial cells): very weak effects; release of prostaglandin E2 and 12 [1]: stimulated; formation of cAMP in response to histamine, serotonin and parathyroid hormone [7]: did not have this effect; prostaglandin release [8]: increases; prostaglandin release (human astrocytes): increases; dilation of coronary artery rings [9]: dilates; depolarization of nodose ganglion [10]: does not; excitation of neurons [3]: weaker; excitation of neurons ([3]; listed as Ang(1-7)): excited; effect on water intake (water intake): completely inactive

Which results are given for “Asp-Arg-Val-Tyr-Ile-His-Pro-Phe (DRVYIHPF) [AII]”?
rate of wound healing (wound tissue): significantly increases; choline production (rat mesangial cells): stimulates; release of prostaglandin E2 and 12 [1]: did not have this effect; formation of cAMP in response to histamine, serotonin and parathyroid hormone [7]: inhibited; prostaglandin release [8]: increases; release of intracellular Ca2+ [8]: increases; prostaglandin release (human astrocytes): increases; release of intracellular Ca2+ (human astrocytes): increases; dilation of coronary artery rings [9]: not observed; depolarization of nodose ganglion [10]: causes depolarization; excitation of neurons [3]: excited; motility, stereotypy and learning of conditioned avoidance responses (psychotropic activities) [2]: increased; evoked neuronal norepinephrine release (rat adrenal medulla): biphasic effect; spontaneous neuronal norepinephrine release (rat adrenal medulla): increasing; sensitivity of the baroreceptor-heart-reflex [11]: enhances

With DRVYIH [AII(1-6)] as the substance, how does the choline production (rat mesangial cells) read?
The choline production was “very weak effects”.

What about the “motility, stereotypy and learning of conditioned avoidance responses (psychotropic activities)” value [2] of the same substance?
Its value is “not active”.

Which “effectiveness in wound healing” value [12] does the source give for His-Pro-Phe (HPF) [AII(6-8)] here?
Its value is “not to be effective”.

What does the source list for Ile-His-Pro-Phe (IHPF) [AII(5-8)]?
effect on water intake (water intake): only a slight effect; effect on blood pressure (blood pressure [13]): minimal effect

With Try-Ile-His-Pro-Phe (YIHPF) [AII(4-8)] as the substance, how does the “effectiveness in wound healing” value [12] read?
The value was “not to be effective; also recorded: ineffective”.

What about the “effect on water intake” value (water intake) of the same substance?
Its value is “only a slight effect”.

What about the “effect on blood pressure” value (blood pressure [13]) of the same substance?
The value was “minimal effect”.

What does the source list for Val-Tyr-Ile-His-Pro (VYIHP) [AII(3-7)]?
depressor effect (blood pressure [6]): no depressor effect; pressor effect (blood pressure [6]): less of a pressor effect than AII(1-7)

Which “dilation of coronary artery rings” value [9] does the source give for “Val-Tyr-Ile-His-Pro-Phe (VYIHPF) [AII(3-8)]” here?
Its value is “not observed”.
